Results as given in ChEMBL document CHEMBL4316646, “Strepantibins A-C: Hexokinase II Inhibitors from a Mud Dauber Wasp Associated Streptomyces sp” (J Nat Prod, 2019).
Counter-ions that a name gives are not always drawn. Calls of active or inactive are those of the source. No cut-off for these calls is given here.

T1: Hexokinase-2 (Homo sapiens, UniProt P52789)
T1 sequence (P52789 whole entry): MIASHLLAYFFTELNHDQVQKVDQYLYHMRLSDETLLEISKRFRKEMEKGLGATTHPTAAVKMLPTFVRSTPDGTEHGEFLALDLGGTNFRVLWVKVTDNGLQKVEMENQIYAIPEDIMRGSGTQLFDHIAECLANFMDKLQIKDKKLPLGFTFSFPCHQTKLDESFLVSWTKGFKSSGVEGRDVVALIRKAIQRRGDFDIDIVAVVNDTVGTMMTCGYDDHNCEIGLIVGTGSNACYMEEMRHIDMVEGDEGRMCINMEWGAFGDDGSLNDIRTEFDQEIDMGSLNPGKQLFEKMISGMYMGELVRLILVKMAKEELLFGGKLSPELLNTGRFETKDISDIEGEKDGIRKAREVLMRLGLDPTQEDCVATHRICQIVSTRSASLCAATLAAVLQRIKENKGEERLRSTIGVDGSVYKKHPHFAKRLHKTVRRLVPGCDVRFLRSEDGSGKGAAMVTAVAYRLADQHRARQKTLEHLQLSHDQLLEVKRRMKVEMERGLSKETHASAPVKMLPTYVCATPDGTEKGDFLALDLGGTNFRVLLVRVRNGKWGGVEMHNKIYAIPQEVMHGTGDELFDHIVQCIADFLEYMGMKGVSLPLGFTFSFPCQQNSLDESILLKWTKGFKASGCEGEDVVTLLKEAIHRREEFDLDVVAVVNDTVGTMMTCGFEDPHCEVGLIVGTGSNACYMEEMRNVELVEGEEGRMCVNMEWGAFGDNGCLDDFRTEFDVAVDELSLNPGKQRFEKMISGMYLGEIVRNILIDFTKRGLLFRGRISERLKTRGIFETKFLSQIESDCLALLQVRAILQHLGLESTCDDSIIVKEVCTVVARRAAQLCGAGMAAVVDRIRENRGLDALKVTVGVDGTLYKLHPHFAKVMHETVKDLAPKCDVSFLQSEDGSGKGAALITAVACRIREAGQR

B1: Hexokinase-2 (Homo sapiens), P52789 (protein)
chain: T1 sequence (P52789 whole entry)

How the values were obtained:
[1] = tested on: HepG2; assay: Cytotoxicity against human HepG2 cells assessed as reduction in cell viability by MTT assay; assay type: functional, cell-based
[2] = tested on: L02; assay: Cytotoxicity against human LO2 cells assessed as reduction in cell viability by MTT assay; assay type: ADME, cell-based
[3] = tested on: SMMC-7721; assay: Cytotoxicity against human SMMC7721 cells assessed as reduction in cell viability by MTT assay; assay type: functional, cell-based
[4] = tested on: PLC-PRF-5; assay: Cytotoxicity against human PLC/PRF/5 cells assessed as reduction in cell viability by MTT assay; assay type: functional, cell-based
[5] = tested on: SMMC-7721; assay: Induction of apoptosis in human SMMC7721 cells assessed as formation of apoptotic bodies at 0.5 to 8 uM measured after 24 hrs by DAPI staining based fluorescence microscopic analysis; assay type: functional, cell-based
[6] = tested on: SMMC-7721; assay: Induction of apoptosis in human SMMC7721 cells assessed as chromatin […] at 0.5 to 8 uM measured after 24 hrs by DAPI staining based fluorescence microscopic analysis; assay type: functional, cell-based
[7] = molecular target: T1, Hexokinase-2; assay: Inhibition of HK2 (unknown origin) using glucose-6-phosphate dehydrogenase as substrate preincubated for 10 mins followed by substrate addition
[8] = compound: CC1(C)N=C2C(c3ccccc3)=CC(=O)C(c3ccccc3)=C2O1; assay: (§1) Competitive-inhibition of HK2 (unknown origin) assessed as Km at 10 uM using varying levels of glucose-6-phosphate dehydrogenase as substrate by Lineweaver-burk plot analysis; conditions: Homo sapiens
[9] = compound: COC1=C(c2ccccc2)C(=O)[C@@](O)(CC(C)=O)C(c2ccccc2)=C1; assay: as §1; conditions: Homo sapiens
[10] = compound: COc1cc(-c2ccccc2)c(=O)c(C(C)=O)c(O)c1-c1ccccc1; assay: as §1; conditions: Homo sapiens

Molecule | IC50 [1] [µM] | IC50 [2] [µM] | IC50 [3] [nM] | IC50 [4] [nM] | Activity [5] | Activity [6] | IC50 [7] [µM] | Km [8] [µM] | Km [9] [µM] | Km [10] [µM]
COc1cccc2c1C(=O)c1c(O)c3c(c(O)c1C2=O)C[C@@](O)(C(=O)CO)C[C@@H]3O[C@H]1C[C@H](N)[C@H](O)[C@H](C)O1 [DOXORUBICIN HYDROCHLORIDE] | 2.6 | 13.5 | 1100 | 1900 | – | – | – | – | – | –
COC1=C(c2ccccc2)C(=O)[C@@](O)(CC(C)=O)C(c2ccccc2)=C1 | 2.3 | 11.2 | 2900 | 1900 | Active | Active | 9.8 | – | – | –
CC1(C)N=C2C(c3ccccc3)=CC(=O)C(c3ccccc3)=C2O1 | 12.3 | 17.6 | 4900 | 11600 | – | – | 34.6 | – | – | –
O=c1[nH]cc(F)c(=O)[nH]1 [FLUOROURACIL] | 3.6 | 10.6 | 2500 | 2800 | – | – | – | – | – | –
COc1cc(-c2ccccc2)c(=O)c(C(C)=O)c(O)c1-c1ccccc1 | 9.5 | 17.8 | 10300 | 7100 | – | – | 31.2 | – | – | –
B1 | – | – | – | – | – | – | – | 290 | 430 | 310
